Patent US10758609B2, “Cross-reactive T-cell epitopes of HIV, SIV, and FIV for vaccines in humans and cats” (priority 2015, dated 2020)

Legend:
[1] = tested on: PBMC from FIV-vaccinated cats; assay: Feline IFNγ ELISpot of PBMC from vaccinated cats; assay type: cell-based, cat; details: for IFNγ, frequency of responders: FIV peptides, FIV-vaccinated cats (prototype dual-subtype vaccine)
Protocol: (§1) IFNγ and IL2 ELISpot analyses were performed using feline IFNγ ELISpot and feline IL2 ELISpot kits (R&D Systems, Cat# SEL764 and SEL1890) as described. The threshold is defined as ≥50 spot forming units (SFU) per 1×10^6 PBMC when counted with MVS ELISpot Reader (MVS Pacific, LLC). Each result is an average of the duplicate samples after subtraction of the average value of the media controls.
(§2) Concurrently, the overlapping peptide pools of FIV structural/enzyme proteins were used to stimulate PBMC and T cells from FIV-vaccinated cats. These cats were vaccinated with prototype dual-subtype FIV vaccine which was the prototype to our commercial FIV vaccine (Coleman et al., 2014). The feline assays (Example 1) equivalent to those of human assays (Sanou et al., 2013; Roff et al., 2015) were used except for ICS analysis. In place of ICS for cytolysin/cytotoxins, IL2 ELISpot analysis was performed. […] The results for FIV-vaccinated cats included IFNγ and IL2 productions and CD3^+CD4+ and CD3^+CD8^+ T-cell proliferation (Table 9, the second set of results).
(§3) The feline IFNγ and L2 ELISpot analyses of PBMC to FIV MAPs and peptides were performed as previously described (Abbott et al. (2012)) using feline IFNγ modular kit (R&D Systems, Minneapolis, Minn.) and feline IL2 modular kit (R&D Systems). All results shown in the figures (FIGS. 8A-1, 8B-1, 8A-2, 8B-2, 8A-3, 8B-3) are after subtracting the average value of the results from all control cats.
(§4) The second parameter evaluated was the ability of the peripheral blood mononuclear cells (PBMC) from vaccinated and control cats to produce IL2 and interferon-γ (IFNγ) proteins in responses to FIV MAPs and peptides (FIGS. 8A-1, 8A-2, 8A-3, 8B-1, 8B-2, 8B-3) using feline IL2 and IFNγ ELISpot assays (Aranyos et al. (2016); Abbott et al. (2012)). IL2 enhances the proliferation of FIV-specific CD4^+ T cells and CD8^+ T cells. IFNγ is known enhance the FIV-specific CTL activities in vaccinated cats (Abbas et al. (2015)).

[2] = tested on: feline CD3^+CD4^+ T cells; assay: CFSE-based feline CD3+CD4+ T-cell proliferation; set-up: species or system cat; details: FIV peptides; FIV-vaccinated cats
Protocol: (§5) Carboxyfluorescein diacetate succinimide ester (CFSE)-proliferation was performed according to the manufacturer's protocol (Invitrogen, Grand Island, N.Y.) and processed using a previously described modification. The modification consisted of 2.5×10^5 CFSE-labeled feline PBMC stimulated for 5 days (37° C., 5% CO2) with 4 μg/mL peptide in culture media (RPMI medium 25 µg/mL gentamycin, and 10% heat-inactivated fetal bovine serum (FBS)). Peptide pools consisted of 3-5 overlapping peptides of 4 μg/mL each. The antibodies used for flow cytometry based proliferation analysis consisted of murine anti-feline (Fe) CD3 monoclonal antibody (MAb clone kindly provided by Drs. Yorihiro Nishimura and Takayuki Miyazawa; described in [32]) combined with secondary goat anti-mouse IgG3-APC/CY7 MAb (SouthernBiotech, Birmingham, Ala.; Cat#1100-19); and murine anti-FeCD4-PE MAb (SouthernBiotech, Cat#8130-09); and murine anti-FeCD8 MAb (MAb clone kindly provided by Dr. Nazareth Gengozian, described in [33]) with secondary goat anti-mouse IgG2a-PE/CY7 (Southern Biotech, Cat#1080-17). The murine anti-B220-APC MAb for detecting feline B cells (SouthernBiotech, Cat#1665-11) and previously described MAbs for CFSE were used for FACS phenotyping. Both FACS phenotyping and CFSE-proliferation analyses were performed with BD LSRII and FACSDiva™ Software (BD Biosciences, San Jose, Calif.). The final value for each sample was derived after subtraction of the average value of the media controls using a positive threshold of ≥1 CFSE^low.
as §2
(§6) Carboxyfluorescein diacetate succinimide ester (CFSE)-proliferation analysis was according to the manufacturer's protocol (Invitrogen-Fisher, Carlsbad, Calif.) and processed as previously described (Roff et al. (2015)) using the following modifications: anti-feline CD3 antibody ((clone NZM1), a generous gift from T. Miyazawa (Univ. of Tokyo, Japan)) in combination with APC-conjugated anti-mouse IgG3 (Southern Biotech, Birmingham, Ala.), PE-conjugated anti-feline CD4 antibody (Southern Biotech), and anti-feline CD8 antibody (gift from N. Gengozian, University of Tennessee (Gengozian et al. (1997))) in combination with PE/Cy7-conjugated anti-mouse IgG2b (Southern Biotech) to detect the proliferation of feline CD3^+CD4+ T cells and feline […]. All results shown in the figures (FIGS. 7A-1, 7B-1, 7A-2, 7B-2, 7A-3, 7B-3) are after subtracting the average value of each results from all control cats. The threshold of CFSE proliferation is ≥0.5 CFSE^low. […]

FIVFC1 = assay: FIV enhancement and suppression (E/S) analysis of in vitro FIV infection of feline PBMC; assay type: cell-based, feline immunodeficiency virus; details: FIV peptides; in vitro FIV infection of uninfected cat PBMC
Protocol: FIV viral enhancement or suppression was determined using a 48-well modification of the method described for detecting FIV enhancing activity of IFNγ and FIV suppressive activity of IFNα [37]. […] MAP1c contained four branched chains of peptide Fp4-3. T-cell mitogen concanavalin A (ConA) at 4 μg/mL was used as an infection enhancing control. Six hours after the culturing with peptide, MAP, or ConA, varying dilutions of FIVFC1 were added to the wells. Seventy-two hours later the cells were re-cultured in fresh culture media with ConA-stimulated autologous PBMC (0.25-0.5×10^6) using the same amount of corresponding peptide, MAP, ConA or media. On Day 7, 10, and 13 of culture, 0.5 mL of culture fluid was collected and 0.5 mL of fresh media added to maintain a consistent volume. The harvested culture samples were analyzed for FIV titer using the previously described RT assay. The results are shown as the end-point dilution titer from two studies using PBMC from different SPF donors.
Statistical analysis. The statistically significant differences between the end-point dilution titers of the peptide or MAP culture samples and either the virus control samples or specific MAP culture samples were calculated using a paired Student t-test with a two-tailed distribution (SigmaPlot version 11.0). Statistical comparisons between pre and post-vaccination(s) were similarly performed. The comparison was considered statistically significant when p<0.05.

[3] = tested on: feline CD3^+CD8^+ T cells; assay: CFSE-based feline CD3+CD8+ T-cell proliferation; set-up: species or system cat; details: for CD8^+ T (T-cell proliferation), frequency of responders: FIV peptides
Protocol: as §5, §2, §6

[4] = tested on: PBMC from FIV-vaccinated cats; assay: Feline IL2 ELISpot of PBMC from vaccinated cats; assay type: cell-based, cat; details: FIV peptides
Protocol: as §1, §2, §3, §4

[5] = cats of Group 1, MAP Vaccine Trial 1 (FIG. 3)

Sequence	IFNγ, frequency of responders [1]	IFNγ production [1, 5] [SFU/10^6 PBMC]	CDC4^+ T (T-cell proliferation), frequency of responders [2]	FIV Test E/S (enhancer/suppressor analysis) (FIVFC1)	CD8^+ T (T-cell proliferation), frequency of responders ([3]; FIV-vaccinated cats)	Responder frequency in CD8+ T-cell proliferation ([3]; FIV-vaccinated cats, in vitro analyses (Table 9)) [%]	% CD8+ T-cell CFSE^low over % CD4+ T-cell CFSE^low ratio (CD8/CD4 response ratio) [3, 5]	IL2, frequency of responders [4]
KKKSGKWRLIDFRVLNKL [FRT3-3/4]	+++ (40.1%-54% (+++))	531	— (0%-1.4%(—))	↓	+++ (40.1%-54% (+++))	44.4	9	++++ (>54% (++++))
RAWYLEALGKLAAIKAK [Fp10-2/3, overlapping peptide of MAP6]	— (0%-1.4%(—))	–	— (0%-1.4%(—))	↓	— (0%-1.4%(—))	–	–	+++ (40.1%-54% (+++))
